Our source for the Duration and Latency values is patent publication US20230416258A1, “BENZ[…], AND PREPARATION METHOD THEREFOR AND USE THEREOF” (CHINA PHARMACEUTICAL UNIVERSITY, priority 2020, published 2023).

Structures are written as SMILES.

For the first test, the system named is KM mice. Nature of the test: Test for drug-induced disappearance of righting reflex in mice. It counts as in vivo. Particulars: 15 mg/kg, single rapid bolus via tail vein. In a few lines:
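Latency to, and duration of, righting reflex loss were recorded after one fast tail-vein bolus. Animals: randomized female KM mice weighing 18–25 g.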
Consider `CCSc1nnc2n1-c1ccc(Br)cc1C(c1ccccn1)=N[C@H]2CCC(=O)OC` [Compound 115, methyl (S)-3-(8-bromo-6-(pyridin-2-yl)-1-ethylthio-4H-benzo[f][1,2,4]triazolo[4,3-a][1,4]diazepin-4-yl)propionate], for which the Duration turned out to be 1.26 min and the Latency is 0.18 min.

Still in this test, the particulars now being: 30 mg/kg, single rapid bolus via tail vein.
Regarding `COC(=O)CC[C@@H]1N=C(c2ccccc2F)c2cc(Br)ccc2-n2c(SCN3CCN(c4ccccc4)CC3)nnc21` [Compound 73, methyl (S)-3-(8-bromo-6-(2-fluorophenyl)-1-(((4-phenylpiperazin-1-yl)methyl)thio)-4H-benzo[f][1,2,4]triazolo[4,3-a][1,4]diazepin-4-yl)propionate], the Duration is on record as 12.12 min and the Latency is reported as 0.86 min.

For the compound `C#CCSc1nnc2n1-c1ccc(Br)cc1C(c1ccccc1F)=N[C@H]2CCC(=O)OC` [Compound 49, methyl (S)-3-(8-bromo-6-(2-fluorophenyl)-1-(prop-2-yn-1-ylthio)-4H-benzo[f][1,2,4]triazolo[4,3-a][1,4]diazepin-4-yl)propionate], the Duration was determined as 9.65 min and the Latency is 0.73 min.

As for `COC(=O)CC[C@@H]1N=C(c2ccccn2)c2cc(Br)ccc2-n2c(SCC3CC3)nnc21` [Compound 116, methyl (S)-3-(8-bromo-6-(pyridin-2-yl)-1-((cyclopropylmethyl)thio)-4H-benzo[f][1,2,4]triazolo[4,3-a][1,4]diazepin-4-yl)propionate], the Duration is 10.89 min and the Latency came to 0.11 min.

`COC(=O)CC[C@@H]1N=C(c2ccccc2F)c2cc(Cl)ccc2-n2c(SCCN3CCN(C)CC3)nnc21` [Compound 60, methyl (S)-3-(8-chloro-6-(2-fluorophenyl)-1-((2-(4-methylpiperazin-1-yl)ethyl)thio)-4H-benzo[f][1,2,4]triazolo[4,3-a][1,4]diazepin-4-yl)propionate]: the Duration is reported as 12.27 min and the Latency is 0.49 min.

In turn, `COC(=O)CC[C@@H]1N=C(c2ccc(F)cc2)c2ccccc2-n2c(S)nnc21` [Compound 6, methyl (S)-3-(6-(4-fluorophenyl)-1-mercapto-4H-benzo[f][1,2,4]triazolo[4,3-a][1,4]diazepin-4-yl)propionate] displayed a Duration of 9.93 min and a Latency of 0.59 min.

`COC(=O)CC[C@@H]1N=C(c2ccccc2F)c2cc(Cl)ccc2-n2c(SCC3CC3)nnc21` [Compound 45, methyl (S)-3-(8-chloro-1-((cyclopropylmethyl)thio)-6-(2-fluorophenyl)-4H-benzo[f][1,2,4]triazolo[4,3-a][1,4]diazepin-4-yl)propionate] displayed a Duration of 11.37 min and a Latency of 0.65 min.

The compound `COC(=O)CC[C@@H]1N=C(c2ccccc2Cl)c2cc(Cl)ccc2-n2c(SCCN(C)C)nnc21` [Compound 133, methyl (S)-3-(8-chloro-6-(2-chlorophenyl)-1-(2-((dimethylamino)ethyl)thio)-4H-benzo[f][1,2,4]triazolo[4,3-a][1,4]diazepin-4-yl)propionate] registered a Duration of 2.24 min and a Latency of 0.26 min.

As to `COC(=O)CC[C@@H]1N=C(c2ccccc2F)c2cc(Br)ccc2-n2c(SCCn3ccnc3)nnc21` [Compound 139, methyl (S)-3-(8-bromo-6-(2-fluorophenyl)-1-(2-((1H-imidazol-1-yl)ethyl)thio)-4H-benzo[f][1,2,4]triazolo[4,3-a][1,4]diazepin-4-yl)propionate], the Duration came out at 19.99 min and the Latency was 0.38 min.

`COC(=O)CC[C@@H]1N=C(c2ccccc2F)c2cc([N+](=O)[O-])ccc2-n2c(SC3CCN(C)CC3)nnc21` [Compound 65, methyl (S)-3-(8-nitro-6-(2-fluorophenyl)-1-((1-methylpiperidin-4-yl)thio)-4H-benzo[f][1,2,4]triazolo[4,3-a][1,4]diazepin-4-yl)propionate]: the Duration is on record as 17.25 min and the Latency was 1.74 min.

In turn, `COC(=O)CC[C@@H]1N=C(c2ccccc2Cl)c2cc(Cl)ccc2-n2c(S)nnc21` [Compound 2, methyl (S)-3-(8-chloro-6-(2-chlorophenyl)-1-mercapto-4H-benzo[f][1,2,4]triazolo[4,3-a][1,4]diazepin-4-yl)propionate] registered a Duration of 5.27 min and a Latency of 0.58 min.

`COC(=O)CC[C@@H]1N=C(c2ccccc2Cl)c2cc([N+](=O)[O-])ccc2-n2c(SC3CCN(C)CC3)nnc21` [Compound 95, methyl (S)-3-(8-nitro-6-(2-chlorophenyl)-1-((1-methylpiperidin-4-yl)thio)-4H-benzo[f][1,2,4]triazolo[4,3-a][1,4]diazepin-4-yl)propionate] yielded a Duration of 12.41 min and a Latency of 0.82 min.

In turn, `CCSc1nnc2n1-c1ccc(Br)cc1C(c1ccccn1)=N[C@H]2CCC(=O)OC` [Compound 115, methyl (S)-3-(8-bromo-6-(pyridin-2-yl)-1-ethylthio-4H-benzo[f][1,2,4]triazolo[4,3-a][1,4]diazepin-4-yl)propionate] showed a Duration of 5.02 min and a Latency of 0.13 min.

As for `COC(=O)CC[C@@H]1N=C(c2ccccc2F)c2cc(Br)ccc2-n2c(SCCN3CCC(F)(F)CC3)nnc21` [Compound 128], the Duration is 7.98 min and the Latency is 0.42 min.

For `COC(=O)CC[C@@H]1N=C(c2ccccc2F)c2cc(Cl)ccc2-n2c(SCN3CCOCC3)nnc21` [Compound 69, methyl (S)-3-(8-chloro-6-(2-fluorophenyl)-1-((morpholinomethyl)thio)-4H-benzo[f][1,2,4]triazolo[4,3-a][1,4]diazepin-4-yl)propionate], the Duration is 21.61 min and the Latency turned out to be 0.90 min.

Staying with this test, now noted: 60 mg/kg, single rapid bolus via tail vein.
With `CCSc1nnc2n1-c1ccc([N+](=O)[O-])cc1C(c1ccccc1Cl)=N[C@H]2CCC(=O)OC` [Compound 28, methyl (S)-3-(8-nitro-6-(2-chlorophenyl)-1-(ethylthio)-4H-benzo[f][1,2,4]triazolo[4,3-a][1,4]diazepin-4-yl)propionate], the Duration is given as 4.24 min and the Latency is on record as 0.46 min.

For the compound `COC(=O)CC[C@@H]1N=C(c2ccccc2)c2cc(Br)ccc2-n2c(SCCCN(C)C)nnc21` [Compound 109, methyl (S)-3-(8-bromo-1-((3-(dimethylamino)propyl)thio)-6-phenyl-4H-benzo[f][1,2,4]triazolo[4,3-a][1,4]diazepin-4-yl)propionate], the Duration is reported as 13.27 min and the Latency is on record as 0.97 min.

`COC(=O)CC[C@@H]1N=C(c2ccccc2)c2cc(Cl)ccc2-n2c(SCCCN(C)C)nnc21` [Compound 108, methyl (S)-3-(8-chloro-1-((3-(dimethylamino)propyl)thio)-6-phenyl-4H-benzo[f][1,2,4]triazolo[4,3-a][1,4]diazepin-4-yl)propionate] gave a Duration of 11.73 min and a Latency of 0.59 min.

Regarding `COC(=O)CC[C@@H]1N=C(c2ccccc2Cl)c2cc(Cl)ccc2-n2c(SCCN3CCOCC3)nnc21` [Compound 81, methyl (S)-3-(8-chloro-6-(2-chlorophenyl)-1-((2-morpholinoethyl)thio)-4H-benzo[f][1,2,4]triazolo[4,3-a][1,4]diazepin-4-yl)propionate], the Duration was 6.41 min and the Latency is 0.21 min.

The same test, now with this note: 100 mg/kg, single rapid bolus via tail vein.
As for `COC(=O)CC[C@@H]1N=C(c2ccccc2Cl)c2cc(Cl)ccc2-n2c(SCCN3CCOCC3)nnc21` [Compound 81, methyl (S)-3-(8-chloro-6-(2-chlorophenyl)-1-((2-morpholinoethyl)thio)-4H-benzo[f][1,2,4]triazolo[4,3-a][1,4]diazepin-4-yl)propionate], the Duration was 12.38 min and the Latency came to 0.22 min.
